Values quoted from earlier work as cited in patent US11638700B2, “Iron/shikonin nano-composite and use thereof and method for preparing the same by supermolecular self-assembly” (Jilin University, priority 2020, dated 2023).

Settings: generally considered

SMILES: CC(C)=CC[C@@H](O)C1=CC(=O)c2c(O)ccc(O)c2C1=O [shikonin]
- solubility of shikonin in water: insoluble in water
